Reference: patent publication US20040266623A1, “SYNERGISTIC QUINCLORAC HERBICIDAL COMPOSITIONS” (priority 2003, published 2004)

Assays:
Assay in all cases: Greenhouse pot test, postemergent spray, visual control rating converted to percent control
Type in all cases: in vivo
[1] = test system: dandelion
In short: (§1)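 Steps: grow in soilless greenhouse media; spray at 43.46 gallons/acre; hold in greenhouse; score visually at 24 h to 21 days after treatment on a 1–9 scale; convert to percent control. Colby's two- and three-way equations give expected inhibition for mixtures.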

[2] = test system: plantain
In short: as §1

[3] = test system: white clover
In short: as §1

In the case of `O=C(O)c1c(Cl)ccc2cc(Cl)cnc12` [Quinclorac, 3,7-dichloro-8-quinolinecarboxylic acid], the “% Control Dandelion” value ([1]; Test 1, 7 DAT, 0.18 lbs/A) is reported as 33.3%, the “Control (1-9) Dandelion” value ([1]; Test 1, 7 DAT, 0.18 lbs/A) is reported as 3 and the “% Control Dandelion” value ([1]; Test 1, 7 DAT, 0.375 lbs/A) is reported as 33.3%. For the same compound, the “Control (1-9) Dandelion” value ([1]; Test 1, 7 DAT, 0.375 lbs/A) was 3, the “% Control Dandelion” value ([1]; Test 1, 7 DAT, 0.75 lbs/A) was 33.3% and the “Control (1-9) Dandelion” value ([1]; Test 1, 7 DAT, 0.75 lbs/A) was 3. The “% Control Dandelion” value ([1]; Test 1, 14 DAT, 0.18 lbs/A) was 88.9%, the “Control (1-9) Dandelion” value ([1]; Test 1, 14 DAT, 0.18 lbs/A) was 8 and the “% Control Dandelion” value ([1]; Test 1, 14 DAT, 0.375 lbs/A) was 77.8%. For the same compound, the “Control (1-9) Dandelion” value ([1]; Test 1, 14 DAT, 0.375 lbs/A) was 7, the “% Control Dandelion” value ([1]; Test 1, 14 DAT, 0.75 lbs/A) was 66.7% and the “Control (1-9) Dandelion” value ([1]; Test 1, 14 DAT, 0.75 lbs/A) was 6. For the same compound, the “% Control Dandelion” value ([1]; Test 1, 24 HAT, 0.18 lbs/A) was 22.2%, the “Control (1-9) Dandelion” value ([1]; Test 1, 24 HAT, 0.18 lbs/A) was 2 and the “% Control Dandelion” value ([1]; Test 1, 24 HAT, 0.375 lbs/A) was 11.1%. For the same compound, the “Control (1-9) Dandelion” value ([1]; Test 1, 24 HAT, 0.375 lbs/A) was 1, the “% Control Dandelion” value ([1]; Test 1, 24 HAT, 0.75 lbs/A) was 11.1% and the “Control (1-9) Dandelion” value ([1]; Test 1, 24 HAT, 0.75 lbs/A) was 1. The “% Control Dandelion” value ([1]; Test 1, 48 HAT, 0.18 lbs/A) was 33.3%, the “Control (1-9) Dandelion” value ([1]; Test 1, 48 HAT, 0.18 lbs/A) was 3 and the “% Control Dandelion” value ([1]; Test 1, 48 HAT, 0.375 lbs/A) was 33.3%. The “Control (1-9) Dandelion” value ([1]; Test 1, 48 HAT, 0.375 lbs/A) was 3, the “% Control Dandelion” value ([1]; Test 1, 48 HAT, 0.75 lbs/A) was 33.3% and the “Control (1-9) Dandelion” value ([1]; Test 1, 48 HAT, 0.75 lbs/A) was 3. The “% Control Dandelion” value ([1]; Test 2, 7 DAT, 0.18 lbs/A) was 88.9%, the “Control (1-9) Dandelion” value ([1]; Test 2, 7 DAT, 0.18 lbs/A) was 8 and the “% Control Dandelion” value ([1]; Test 2, 7 DAT, 0.375 lbs/A) was 33.3%. For the same compound, the “Control (1-9) Dandelion” value ([1]; Test 2, 7 DAT, 0.375 lbs/A) was 3, the “% Control Dandelion” value ([1]; Test 2, 7 DAT, 0.75 lbs/A) was 33.3% and the “Control (1-9) Dandelion” value ([1]; Test 2, 7 DAT, 0.75 lbs/A) was 3. For the same compound, the “% Control Dandelion” value ([1]; Test 2, 14 DAT, 0.18 lbs/A) was 88.9%, the “Control (1-9) Dandelion” value ([1]; Test 2, 14 DAT, 0.18 lbs/A) was 8 and the “% Control Dandelion” value ([1]; Test 2, 14 DAT, 0.375 lbs/A) was 88.9%. The “Control (1-9) Dandelion” value ([1]; Test 2, 14 DAT, 0.375 lbs/A) was 8, the “% Control Dandelion” value ([1]; Test 2, 14 DAT, 0.75 lbs/A) was 66.7% and the “Control (1-9) Dandelion” value ([1]; Test 2, 14 DAT, 0.75 lbs/A) was 6. The “% Control Dandelion” value ([1]; Test 2, 24 HAT, 0.18 lbs/A) was 22.2%, the “Control (1-9) Dandelion” value ([1]; Test 2, 24 HAT, 0.18 lbs/A) was 2 and the “% Control Dandelion” value ([1]; Test 2, 24 HAT, 0.375 lbs/A) was 22.2%. The “Control (1-9) Dandelion” value ([1]; Test 2, 24 HAT, 0.375 lbs/A) was 2, the “% Control Dandelion” value ([1]; Test 2, 24 HAT, 0.75 lbs/A) was 22.2% and the “Control (1-9) Dandelion” value ([1]; Test 2, 24 HAT, 0.75 lbs/A) was 2. The “% Control Dandelion” value ([1]; Test 2, 72 HAT, 0.18 lbs/A) was 55.6%, the “Control (1-9) Dandelion” value ([1]; Test 2, 72 HAT, 0.18 lbs/A) was 5 and the “% Control Dandelion” value ([1]; Test 2, 72 HAT, 0.375 lbs/A) was 33.3%. The “Control (1-9) Dandelion” value ([1]; Test 2, 72 HAT, 0.375 lbs/A) was 3, the “% Control Dandelion” value ([1]; Test 2, 72 HAT, 0.75 lbs/A) was 33.3% and the “Control (1-9) Dandelion” value ([1]; Test 2, 72 HAT, 0.75 lbs/A) was 3. The “% Control Dandelion” value ([1]; Test 4, 7 DAT, 0.18 lbs/A) was 22.2%, the “Control (1-9) Dandelion” value ([1]; Test 4, 7 DAT, 0.18 lbs/A) was 2 and the “% Control Dandelion” value ([1]; Test 4, 7 DAT, 0.375 lbs/A) was 22.2%. The “Control (1-9) Dandelion” value ([1]; Test 4, 7 DAT, 0.375 lbs/A) was 2, the “% Control Dandelion” value ([1]; Test 4, 7 DAT, 0.75 lbs/A) was 22.2% and the “Control (1-9) Dandelion” value ([1]; Test 4, 7 DAT, 0.75 lbs/A) was 2. For the same compound, the “% Control Dandelion” value ([1]; Test 4, 14 DAT, 0.18 lbs/A) was 22.2%, the “Control (1-9) Dandelion” value ([1]; Test 4, 14 DAT, 0.18 lbs/A) was 2 and the “% Control Dandelion” value ([1]; Test 4, 14 DAT, 0.375 lbs/A) was 22.2%. The “Control (1-9) Dandelion” value ([1]; Test 4, 14 DAT, 0.375 lbs/A) was 2, the “% Control Dandelion” value ([1]; Test 4, 14 DAT, 0.75 lbs/A) was 22.2% and the “Control (1-9) Dandelion” value ([1]; Test 4, 14 DAT, 0.75 lbs/A) was 2. The “% Control Plantain” value ([2]; Test 4, 7 DAT, 0.18 lbs/A) was 33.3%, the “Control (1-9) Plantain” value ([2]; Test 4, 7 DAT, 0.18 lbs/A) was 3 and the “% Control Plantain” value ([2]; Test 4, 7 DAT, 0.375 lbs/A) was 22.2%. The “Control (1-9) Plantain” value ([2]; Test 4, 7 DAT, 0.375 lbs/A) was 2, the “% Control Plantain” value ([2]; Test 4, 7 DAT, 0.75 lbs/A) was 33.3% and the “Control (1-9) Plantain” value ([2]; Test 4, 7 DAT, 0.75 lbs/A) was 3. The “% Control Plantain” value ([2]; Test 4, 14 DAT, 0.18 lbs/A) was 33.3%, the “Control (1-9) Plantain” value ([2]; Test 4, 14 DAT, 0.18 lbs/A) was 3 and the “% Control Plantain” value ([2]; Test 4, 14 DAT, 0.375 lbs/A) was 22.2%. For the same compound, the “Control (1-9) Plantain” value ([2]; Test 4, 14 DAT, 0.375 lbs/A) was 2, the “% Control Plantain” value ([2]; Test 4, 14 DAT, 0.75 lbs/A) was 33.3% and the “Control (1-9) Plantain” value ([2]; Test 4, 14 DAT, 0.75 lbs/A) was 3. The “% Control Clover” value ([3]; Test 1, 7 DAT, 0.18 lbs/A) was 33.3%, the “Control (1-9) Clover” value ([3]; Test 1, 7 DAT, 0.18 lbs/A) was 3 and the “% Control Clover” value ([3]; Test 1, 7 DAT, 0.375 lbs/A) was 33.3%. The “Control (1-9) Clover” value ([3]; Test 1, 7 DAT, 0.375 lbs/A) was 3, the “% Control Clover” value ([3]; Test 1, 7 DAT, 0.75 lbs/A) was 33.3% and the “Control (1-9) Clover” value ([3]; Test 1, 7 DAT, 0.75 lbs/A) was 3. The “% Control Clover” value ([3]; Test 1, 14 DAT, 0.18 lbs/A) was 100.0%, the “Control (1-9) Clover” value ([3]; Test 1, 14 DAT, 0.18 lbs/A) was 9 and the “% Control Clover” value ([3]; Test 1, 14 DAT, 0.375 lbs/A) was 100.0%. For the same compound, the “Control (1-9) Clover” value ([3]; Test 1, 14 DAT, 0.375 lbs/A) was 9, the “% Control Clover” value ([3]; Test 1, 14 DAT, 0.75 lbs/A) was 88.9% and the “Control (1-9) Clover” value ([3]; Test 1, 14 DAT, 0.75 lbs/A) was 8. For the same compound, the “% Control Clover” value ([3]; Test 1, 24 HAT, 0.18 lbs/A) was 11.1%, the “Control (1-9) Clover” value ([3]; Test 1, 24 HAT, 0.18 lbs/A) was 1 and the “% Control Clover” value ([3]; Test 1, 24 HAT, 0.375 lbs/A) was 11.1%. For the same compound, the “Control (1-9) Clover” value ([3]; Test 1, 24 HAT, 0.375 lbs/A) was 1, the “% Control Clover” value ([3]; Test 1, 24 HAT, 0.75 lbs/A) was 11.1% and the “Control (1-9) Clover” value ([3]; Test 1, 24 HAT, 0.75 lbs/A) was 1. For the same compound, the “% Control Clover” value ([3]; Test 1, 48 HAT, 0.18 lbs/A) was 22.2%, the “Control (1-9) Clover” value ([3]; Test 1, 48 HAT, 0.18 lbs/A) was 2 and the “% Control Clover” value ([3]; Test 1, 48 HAT, 0.375 lbs/A) was 33.3%. For the same compound, the “Control (1-9) Clover” value ([3]; Test 1, 48 HAT, 0.375 lbs/A) was 3, the “% Control Clover” value ([3]; Test 1, 48 HAT, 0.75 lbs/A) was 33.3% and the “Control (1-9) Clover” value ([3]; Test 1, 48 HAT, 0.75 lbs/A) was 3. The “% Control Clover” value ([3]; Test 2, 7 DAT, 0.18 lbs/A) was 66.7%, the “Control (1-9) Clover” value ([3]; Test 2, 7 DAT, 0.18 lbs/A) was 6 and the “% Control Clover” value ([3]; Test 2, 7 DAT, 0.375 lbs/A) was 77.8%. For the same compound, the “Control (1-9) Clover” value ([3]; Test 2, 7 DAT, 0.375 lbs/A) was 7, the “% Control Clover” value ([3]; Test 2, 7 DAT, 0.75 lbs/A) was 77.8% and the “Control (1-9) Clover” value ([3]; Test 2, 7 DAT, 0.75 lbs/A) was 7. The “% Control Clover” value ([3]; Test 2, 14 DAT, 0.18 lbs/A) was 100.0%, the “Control (1-9) Clover” value ([3]; Test 2, 14 DAT, 0.18 lbs/A) was 9 and the “% Control Clover” value ([3]; Test 2, 14 DAT, 0.375 lbs/A) was 100.0%. The “Control (1-9) Clover” value ([3]; Test 2, 14 DAT, 0.375 lbs/A) was 9, the “% Control Clover” value ([3]; Test 2, 14 DAT, 0.75 lbs/A) was 100.0% and the “Control (1-9) Clover” value ([3]; Test 2, 14 DAT, 0.75 lbs/A) was 9. For the same compound, the “% Control Clover” value ([3]; Test 2, 24 HAT, 0.18 lbs/A) was 22.2%, the “Control (1-9) Clover” value ([3]; Test 2, 24 HAT, 0.18 lbs/A) was 2 and the “% Control Clover” value ([3]; Test 2, 24 HAT, 0.375 lbs/A) was 22.2%. For the same compound, the “Control (1-9) Clover” value ([3]; Test 2, 24 HAT, 0.375 lbs/A) was 2, the “% Control Clover” value ([3]; Test 2, 24 HAT, 0.75 lbs/A) was 22.2% and the “Control (1-9) Clover” value ([3]; Test 2, 24 HAT, 0.75 lbs/A) was 2. For the same compound, the “% Control Clover” value ([3]; Test 2, 72 HAT, 0.18 lbs/A) was 33.3%, the “Control (1-9) Clover” value ([3]; Test 2, 72 HAT, 0.18 lbs/A) was 3 and the “% Control Clover” value ([3]; Test 2, 72 HAT, 0.375 lbs/A) was 33.3%. For the same compound, the “Control (1-9) Clover” value ([3]; Test 2, 72 HAT, 0.375 lbs/A) was 3, the “% Control Clover” value ([3]; Test 2, 72 HAT, 0.75 lbs/A) was 33.3% and the “Control (1-9) Clover” value ([3]; Test 2, 72 HAT, 0.75 lbs/A) was 3. For the same compound, the “% Control Clover” value ([3]; Test 4, 7 DAT, 0.18 lbs/A) was 33.3%, the “Control (1-9) Clover” value ([3]; Test 4, 7 DAT, 0.18 lbs/A) was 3 and the “% Control Clover” value ([3]; Test 4, 7 DAT, 0.375 lbs/A) was 44.4%. For the same compound, the “Control (1-9) Clover” value ([3]; Test 4, 7 DAT, 0.375 lbs/A) was 4, the “% Control Clover” value ([3]; Test 4, 7 DAT, 0.75 lbs/A) was 33.3% and the “Control (1-9) Clover” value ([3]; Test 4, 7 DAT, 0.75 lbs/A) was 3. The “% Control Clover” value ([3]; Test 4, 14 DAT, 0.18 lbs/A) was 33.3%, the “Control (1-9) Clover” value ([3]; Test 4, 14 DAT, 0.18 lbs/A) was 3 and the “% Control Clover” value ([3]; Test 4, 14 DAT, 0.375 lbs/A) was 55.6%. The “Control (1-9) Clover” value ([3]; Test 4, 14 DAT, 0.375 lbs/A) was 5, the “% Control Clover” value ([3]; Test 4, 14 DAT, 0.75 lbs/A) was 44.4% and the “Control (1-9) Clover” value ([3]; Test 4, 14 DAT, 0.75 lbs/A) was 4.
